Holding throughout (type): functional
Experiment [1] concerns Citrobacter. Briefly: Antimicrobial activity against Citrobacter with derepressed AmpC beta-lactamsae assessed as intermediate isolate by broth microdilution method in presence of Tazobactam.
A further experiment concerns Proteus mirabilis. Put plainly: Antimicrobial activity against Non-ESBL Proteus mirabilis assessed as susceptible isolate by broth microdilution method in presence of Tazobactam.
The next experiment has as its system Escherichia coli. Put plainly: Antimicrobial activity against ESBL producing Escherichia coli assessed as susceptible isolate by broth microdilution method in presence of Tazobactam.
Another experiment has as its system Acinetobacter. Put plainly: Antimicrobial activity against imipenem susceptible Acinetobacter assessed as intermediate isolate by broth microdilution method in presence of Tazobactam. (Dilution methods test growth across graded concentrations, often in twofold steps.)
Experiment [2] relates to Pseudomonas aeruginosa. Briefly: Antimicrobial activity against Pseudomonas aeruginosa isolated from ICU patient assessed as intermediate isolate by broth microdilution method in presence of Tazobactam.
The test system of experiment [3] is Pseudomonas aeruginosa. Put plainly: Antimicrobial activity against imipenem non-susceptible Pseudomonas aeruginosa assessed as susceptible isolate by broth microdilution method in presence of Tazobactam.
Experiment [4] concerns Citrobacter. Briefly: Antimicrobial activity against Citrobacter with nonderepressed AmpC beta-lactamsae assessed as susceptible isolate by broth microdilution method in presence of Tazobactam.
The subject of experiment [5] is Enterobacter cloacae. Briefly: Antimicrobial activity against Enterobacter cloacae with nonderepressed AmpC beta-lactamsae assessed as susceptible isolate by broth microdilution method in presence of Tazobactam.
The subject of experiment [6] is Pseudomonas aeruginosa. Put plainly: Antimicrobial activity against Pseudomonas aeruginosa isolated from ICU patient assessed as resistant isolate by broth microdilution method.
Experiment [7] concerns Pseudomonas aeruginosa. Put plainly: Antimicrobial activity against Pseudomonas aeruginosa isolated from non-ICU patient assessed as intermediate isolate by broth microdilution method in presence of Tazobactam.
Experiment [8] has as its system Pseudomonas aeruginosa. Put plainly: Antimicrobial activity against Ceftazidime non-susceptible Pseudomonas aeruginosa assessed as resistant isolate by broth microdilution method in presence of tazobactam.
Experiment [9] concerns Citrobacter. Briefly: Antimicrobial activity against Citrobacter with derepressed AmpC beta-lactamsae assessed as resistant isolate by broth microdilution method.
For experiment [10], the system named is Enterobacter cloacae. Briefly: Antimicrobial activity against Enterobacter cloacae with nonderepressed AmpC beta-lactamsae assessed as resistant isolate by broth microdilution method.
The subject of a further experiment is Serratia marcescens. Briefly: Antimicrobial activity against Ceftazidime non-susceptible Serratia marcescens assessed as resistant isolate by broth microdilution method.

Structures are written as SMILES.

In general, MIC50 refers to an inhibitory concentration at the 50% level, which refers to growth in some studies and to a panel of isolates in others. Regarding `CCN1CCN(C(=O)N[C@@H](C(=O)N[C@@H]2C(=O)N3[C@@H]2SC(C)(C)[C@@H]3C(=O)O)c2ccccc2)C(=O)C1=O` [PIPERACILLIN], the Activity in the experiment with Citrobacter [1] stood at 29.1%; with Proteus mirabilis, 99.4%; with Escherichia coli, 53.3%; with Acinetobacter, 18.1%; with Pseudomonas aeruginosa [2], 0%; in the experiment on Pseudomonas aeruginosa [3], 72.9%. Also, the Activity with Citrobacter [4] worked out at 93.7%; in the experiment on Enterobacter cloacae [5], 93.3%; with Pseudomonas aeruginosa [7], 0%; in the experiment on Pseudomonas aeruginosa [8], 82.7%. For the same compound, the MIC50 in the experiment on Pseudomonas aeruginosa [6] stood at 16 µg/mL.
Turning to `CC(C)(O/N=C(\C(=O)N[C@@H]1C(=O)N2C(C(=O)[O-])=C(C[n+]3ccccc3)CS[C@H]12)c1csc(N)n1)C(=O)O` [CEFTAZIDIME], the Activity in the experiment with Citrobacter [9] was found to be 100%; in the experiment on Enterobacter cloacae [10], 5.7%; with Serratia marcescens, 100%.

Values taken from ChEMBL document CHEMBL1275550, “In vitro activity of doripenem, a carbapenem for the treatment of challenging infections caused by gram-negative bacteria, against recent clinical isolates from the United States” (2008).
